{
  "source": "patent US10076511B2",
  "about": "“Bisamide derivative of dicarboxylic acid as an agent for stimulating tissue regeneration and recovery of diminished tissue function” (TREAMID GmbH, priority 2015, dated 2018)",
  "key": {"male rats": {"test_system": "male rats", "test": "Morphological and functional state of spermatogenic tissue after Paclitaxel", "type": "in vivo, rat", "protocol": "The latter was simulated by a single injection of cytostatic drug Paclitaxel (Mitotax, Dr. Reddy's, India) to male rats (3 months of age). The choice of the drug was due to the fact that it is one of the medications that damage the precursors of spermatogenesis—stem cells.\nPaclitaxel was administered to the animals of the control and test groups once intravenously at the maximum tolerated dose of 7.6 mg/kg. Treamid was administered to the animals of the experimental groups intragastrically at a dose of 5 mg/kg in the form of a suspension in 2% starch mucus for 15 days a month after the administration of Paclitaxel. The control animals received an equivalent volume of the solvent (2% starch mucus), instead of the test compound.\nMorphological and functional state of the spermatogenic tissue was assessed to obtain an additional confirmation of the efficiency to stimulate the formation of committed stem cells.\nIt was estimated by the following indices: the number of cells in the spermatogonial population, the average number of Sertoli cells, the degree of maturity of the spermatogenic layer, the number of Leydig cells, the endocrine activity of the testis, the total number of sperm cells per epididymis, and the percentage of motile sperm forms. For this, in euthanasia on Day 45, Day 65, and Day 90 of the experiment, the tail part of epididymis and testis were isolated at dissection. The epididymis of one testis was homogenized in a warm (37° C.) physiological saline, and the number of motile sperm forms was determined in the suspension of the epididymis cells. The total number of sperm cells per epididymis (TNS) was calculated by using a homogenized cell suspension of the second epididymis in a dosage amount of physiological saline using a leukocyte-count pipette and Goryaev chamber.\nA morphological assay of the testes of rats was performed by fixation thereof in Carnoy's fluid and by preparing paraffin sections. Deparaffined sections of a thickness of 5 μm were stained with hematoxylin-eosin. The number of cells in the spermatogonial population, the number of Sertoli cells, and the number of Leydig cells were counted on the testis section, and the endocrine activity of Leydig cells was determined. The degree of maturity of the spermatogenic layer was calculated based on the count of Sertoli cells. The calculation was carried out according to the formula for the experimental groups: y=5.95-0.18x; for the group of intact animals: y=6.7-0.23x, where x is the average number of Sertoli cells in the cross-section of the convoluted seminiferous tubule, and y is the index characterizing the degree of maturity of the spermatogenic layer. When choosing the time for studies, the duration of spermatogenesis in rats was taken into account, which was one and a half months. The duration of 45 and 65 days after administration of Paclitaxel corresponds to the manifestation of effects on the spermatogonial cell population.\nThe criteria for stimulation of the process of regeneration of the testicular tissue were: an increase in the number of cells in the spermatogonial populations, the number of Sertoli cells, a decrease in the degree of maturity of the spermatogenic layer, and an increase in the productivity of spermatogenesis. The criterion of the functional activity of sperm cells is the percentage of their motile forms."}, "male C57BL/6 mice": {"test_system": "male C57BL/6 mice", "test": "Cachexia induced by Lewis lung carcinoma", "type": "in vivo, mouse", "conditions": "Day 28; Treamid 10 mg/kg intragastrically from Day 15", "protocol": "Cachexia developed in male C57Bl/6 mice when simulating hematogenously metastasizing Lewis lung carcinoma (LLC). Tumor cells were injected once subcutaneously into the mice at a concentration of 5×10^6 in 0.1 ml of physiological saline (Yu-Chou T., Samuel K. K., I-Lu L. et al. Preclinical Investigation of the Novel Histone Deacetylase Inhibitor AR-42 in the Treatment of Cancer-Induced Cachexia//JNCI J Natl Cancer Inst (2015) 107(12)).\nThe day of the injection of tumor cells was taken as Day 1 of the experiment. Treamid was administered at a dose of 10 mg/kg intragastrically once daily, every day from Day 15 to […]. The animals were weighed one day before the introduction of tumor cells (Day 0) and on Day 28 of the experiment. On Day 28, the animals were euthanized in a CO2 chamber, and blood was collected. The level of free testosterone was determined in the blood serum by enzyme immunoassay."}, "Wistar rats": {"test_system": "Wistar rats", "test": "Pair-test of sexual behavior, rats of late reproductive (14 months) and presenile (19 months) age", "type": "in vivo, rat", "conditions": "for EN (the number of ejaculations) / LFM (latency until the first mount) / MN (the number of mounts): 14-month rats", "protocol": "Erectile dysfunction was simulated by using animals of late and senile reproductive age (14-19 months). Suppression of sexual motivation was simulated by using animals of late reproductive age (14 months).\nExperiments on studying the effect of Treamid on copulatory activity were carried out on 76 Wistar rats (14 months and 19 months of age). Treamid was administered intragastrically for 14 days at a dose of 5 mg/kg. Reference drug Sildenafil (100 mg, PFIZER PGM, France) was also administered intragastrically, which corresponded to clinical use, at a dose of 3 mg/kg twice a week. The sexual activity was estimated by the pair-test of sexual behavior. For this purpose female rats in the estrus stage caused by a preliminary 4-fold injection of the Synestrel were involved in the experiment. The effectiveness of Treamid was estimated by the following indices: latency until the first mating attempt (LFM), the number of mating attempts (MN), and the number of ejaculations (EN). The obtained data were compared with those of the same animals before the administration of Treamid (the first test) and with the data in the control group (the second test)."}, "[1]": {"conditions": "Day 45 after Paclitaxel, Treamid 5 mg/kg"}, "[2]": {"conditions": "Day 65 after Paclitaxel, Treamid 5 mg/kg"}, "[3]": {"conditions": "Day 90 after Paclitaxel, Treamid 5 mg/kg"}, "[4]": {"conditions": "First test, before administration of drugs"}, "[5]": {"conditions": "Second test, after 14-day administration course, Treamid 5 mg/kg, Sildenafil 3 mg/kg"}, "[6]": {"conditions": "19-month rats, First test (before administration of drugs)"}, "[7]": {"conditions": "19-month rats, Second test (after 14-day administration course), Treamid 5.0 mg/kg"}},
  "data": [
    {"smiles": "O=C(CCCC(=O)NCCc1ncc[nH]1)NCCc1ncc[nH]1", "note": "[Treamid]", "values": [
      {"measurement": "Number of motile sperm cells (%)", "setting": "male rats; [1]", "value": "71.57 ± 3.19", "unit": "%"},
      {"measurement": "The average number of Sertoli cells (abs.)", "setting": "male rats; [1]", "value": "1.61 ± 0.03", "unit": "abs."},
      {"measurement": "The average number of spermatogonia (abs.)", "setting": "male rats; [1]", "value": "14.56 ± 0.19", "unit": "abs."},
      {"measurement": "The degree of maturity of the spermatogenic layer (standard units)", "setting": "male rats; [1]", "value": "5.66 ± 0.01", "unit": "standard units"},
      {"measurement": "Total number of sperm cells (million)", "setting": "male rats; [1]", "value": "146.00 ± 9.53", "unit": "million"},
      {"measurement": "growth of percentage of motile sperm forms in comparison with the control", "setting": "male rats; Day 65", "value": 32, "unit": "%"},
      {"measurement": "increase of productivity of spermatogenesis (TNS) in comparison with the control", "setting": "male rats; Day 65", "value": 43, "unit": "%"},
      {"measurement": "Endocrine activity of testes", "setting": "male rats; [2]", "value": "4.31 ± 0.24"},
      {"measurement": "Number of Leydig cells", "setting": "male rats; [2]", "value": "9.48 ± 0.21"},
      {"measurement": "Number of motile sperm cells (%)", "setting": "male rats; [2]", "value": "79.81 ± 1.61", "unit": "%"},
      {"measurement": "The average number of Sertoli cells (abs.)", "setting": "male rats; [2]", "value": "2.30 ± 0.03", "unit": "abs."},
      {"measurement": "The average number of spermatogonia (abs.)", "setting": "male rats; [2]", "value": "13.07 ± 0.28", "unit": "abs."},
      {"measurement": "The degree of maturity of the spermatogenic layer (standard units)", "setting": "male rats; [2]", "value": "5.54 ± 0.00", "unit": "standard units"},
      {"measurement": "Total number of sperm cells (million)", "setting": "male rats; [2]", "value": "145.20 ± 15.15", "unit": "million"},
      {"measurement": "increase of productivity of spermatogenesis (TNS) in comparison with the control", "setting": "male rats; Day 90", "value": 46, "unit": "%"},
      {"measurement": "Endocrine activity", "setting": "male rats; [3]", "value": "4.74 ± 4.04"},
      {"measurement": "Number of motile sperm cells (%)", "setting": "male rats; [3]", "value": "67.80 ± 1.14", "unit": "%"},
      {"measurement": "The average number of Leydig cells", "setting": "male rats; [3]", "value": "9.93 ± 0.08"},
      {"measurement": "The average number of Sertoli cells (abs.)", "setting": "male rats; [3]", "value": "2.10 ± 0.06", "unit": "abs."},
      {"measurement": "The average number of spermatogonia (abs.)", "setting": "male rats; [3]", "value": "14.43 ± 0.21", "unit": "abs."},
      {"measurement": "The degree of maturity of the spermatogenic layer (standard units)", "setting": "male rats; [3]", "value": "5.57 ± 0.01", "unit": "standard units"},
      {"measurement": "Total number of sperm cells (million)", "setting": "male rats; [3]", "value": "186.20 ± 12.74", "unit": "million"},
      {"measurement": "Body weight, including the subtraction of the tumor weight", "setting": "male C57BL/6 mice", "value": "23.8 ± 0.57", "unit": "g"},
      {"measurement": "The free testosterone level (pg/ml) in the blood serum", "setting": "male C57BL/6 mice", "value": "3.2 ± 0.3*• pg/ml"},
      {"measurement": "EN (the number of ejaculations)", "setting": "Wistar rats; [4]", "value": "0.00 ± 0.00"},
      {"measurement": "LFM (latency until the first mount)", "setting": "Wistar rats; [4]", "value": "559.08 ± 93.55"},
      {"measurement": "MN (the number of mounts)", "setting": "Wistar rats; [4]", "value": "1.42 ± 0.50"},
      {"measurement": "EN (the number of ejaculations)", "setting": "Wistar rats; [5]", "value": "0.60 ± 0.22⋄*"},
      {"measurement": "MN (the number of mounts)", "setting": "Wistar rats; [5]", "value": "6.90 ± 1.88⋄"},
      {"measurement": "LFM (latency until the first mount)", "setting": "Wistar rats; Second test, after 14-day administration course, Treamid 5 mg/kg, Sildenafil 3 mg/kg intragastrically", "value": "364.80 ± 127.66"},
      {"measurement": "EN (abs.)", "setting": "Wistar rats; [6]", "value": "0.00 ± 0.00", "unit": "abs."},
      {"measurement": "LFM", "setting": "Wistar rats; [6]", "value": "310.27 ± 94.59", "unit": "s"},
      {"measurement": "MN (abs.)", "setting": "Wistar rats; [6]", "value": "4.27 ± 1.04", "unit": "abs."},
      {"measurement": "EN", "setting": "Wistar rats; [7]", "value": "0.20 ± 0.13⋄*"},
      {"measurement": "LFM", "setting": "Wistar rats; [7]", "value": "297.20 ± 117.04", "unit": "s"},
      {"measurement": "MN (abs.)", "setting": "Wistar rats; [7]", "value": "7.90 ± 1.45⋄ abs."}
    ]}
  ]
}
